The NIST ThermoML archive (doi:10.1016/j.fluid.2006.10.024)
Numbers after ± are expanded uncertainties.

Settings: Liquid; for mass density: 101.33 kPa

mass density (298.15 K)	vapor or sublimation pressure (298.15 K)	mass density (313.15 K)	vapor or sublimation pressure (313.15 K)	mass density (328.15 K)	vapor or sublimation pressure (328.15 K)	SMILES
877 ± 1 kg/m3	4.055 ± 0.11 kPa	861.52 ± 1.1 kg/m3	8.45 ± 0.14 kPa	846.33 ± 1.1 kg/m3	16.4 ± 0.21 kPa	CCCCCCl [1-chloropentane]
881.95 ± 0.45 kg/m3	21.61 ± 0.25 kPa	865.36 ± 0.49 kg/m3	40.62 ± 0.4 kPa	848.68 ± 0.52 kg/m3	70.61 ± 0.63 kPa	C1CCOC1 [tetrahydrofuran]
878.81 ± 1 kg/m3	9.56 ± 0.15 kPa	863.67 ± 1.1 kg/m3	18.66 ± 0.23 kPa	848.29 ± 1.1 kg/m3	33.95 ± 0.35 kPa	C1CCOCC1 [tetrahydropyran]

Further lines, the compound ahead of its results:

SMILES	mass density (298.15 K)	vapor or sublimation pressure (298.15 K)	mass density (313.15 K)	vapor or sublimation pressure (313.15 K)	mass density (328.15 K)	vapor or sublimation pressure (328.15 K)
C1COCO1 [1,3-dioxolane]	1058.62 ± 0.85 kg/m3	13.54 ± 0.18 kPa	1039.88 ± 0.76 kg/m3	26.83 ± 0.29 kPa	1020.86 ± 0.67 kg/m3	49.01 ± 0.47 kPa
C1COCCO1 [1,4-dioxane]	1027.87 ± 0.71 kg/m3	4.9 ± 0.12 kPa	1010.69 ± 0.63 kg/m3	10.17 ± 0.16 kPa	993.75 ± 0.6 kg/m3	19.54 ± 0.23 kPa
